# Active and inactive are the calls of the source.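 The calls were made as follows: active = compounds whose fitted half-effect growth-inhibition concentration is no more than twice their top tested dose; inconclusive = flat curve showing moderate inhibition, or an unreliable curve fit; inactive = the rest.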
# System: not listed separately
# Assay: S. cerevisiae growth inhibition on glycerol, dose response, glycerol medium, OD600, dry powder (AID 602184)
# Settings: S. cerevisiae growth in glycerol medium, OD600, 48 h; at 19.5 µM (top of the series)
row,SMILES,"activity change, negative = growth inhibition"
1,NC(=O)c1cccc(C(=O)Nc2nc(-c3ccc4c(c3)CCCC4)cs2)c1,-13.9% (inactive)
2,O=C(Nc1nc(-c2ccc3c(c2)CCCC3)cs1)c1ccccc1,-4.76% (inactive)
3,Cc1cc(C)n(-c2nc3ccccc3c(=O)n2OCC#N)n1,-14.8% (inactive)
4,Oc1c(C(c2ccc(Cl)cc2)N2CCCC2)ccc2cccnc12 (centres undefined),-8.5% (inactive)
5,COc1ccc(-c2nnc(NC(=O)c3ccc(S(=O)(=O)N4CCCc5ccccc54)cc3)o2)cc1,-22.8% (inactive)
6,Cc1ccc(C(=O)Nc2nnc(-c3ccccc3)o2)cc1C,-3.03% (inactive)
7,O=C(Nc1nc(-c2ccccc2)cs1)c1ccc(Br)s1,-11.7% (inactive)

# Same assay, conditions: S. cerevisiae growth in glycerol medium, OD600, 48 h; at 23.5 µM (top of the series)
row,SMILES,"activity change, negative = growth inhibition"
1,Oc1c(CN2CCN(c3ccccc3)CC2)cc(Cl)c2cccnc12,-52.9% (inactive)

# System: S. cerevisiae growth in glycerol medium, OD600, 48 h
# Assay: as above
# Settings: not given
row,SMILES,AC50
1,O=C(Nc1nc(-c2ccccn2)cs1)c1ccccc1,18.9 µM
2,O=C(Nc1nc(-c2ccccn2)cs1)c1ccc(Br)s1,1.01 µM
3,Cc1ccc(C(=O)Nc2nc(-c3ccccn3)cs2)cc1,6.34 µM
4,Cc1ccc(-c2nc3c(Cl)cc(Cl)cc3c(=O)n2O)cc1,3.71 µM
5,CCCC(=O)NC(c1cccs1)c1cc(Cl)c2cccnc2c1O (centres undefined),10.6 µM
6,C/C(=N\NC(=O)c1cc2ccccc2cc1O)c1ccccn1,14.4 µM
7,O=C(Oc1c(Cl)cc(Cl)c2cccnc12)c1ccco1,0.64 µM
8,O=C(Nc1nnc(-c2ccc3c(c2)CCCC3)o1)c1ccccc1,16.1 µM
9,O=C(Nc1nnc(-c2ccc3c(c2)CCCC3)o1)c1ccc(Cl)cc1Cl,14.8 µM
10,O=C(NNC(=S)Nc1ccc(Cl)c(Cl)c1)c1ccccn1,12.7 µM
11,Oc1c(CN2CCc3ccccc3C2)cc(Cl)c2cccnc12,8.17 µM
12,C=CCNC(=S)N/N=C(\C)c1ccccn1,8.88 µM
13,CN1CCN(C(c2ccc(C(F)(F)F)cc2)c2ccc3cccnc3c2O)CC1 (centres undefined),3.1 µM
14,CCOC(=O)N1C(=O)C2(CCCCC2)N(c2ccc(C)cc2)C1=S,< 0.08 µM
15,Oc1c(C(c2ccccc2Cl)N2CCCCC2)ccc2cccnc12 (centres undefined),21.8 µM
16,O=C(Nc1nc(-c2ccccn2)cs1)c1ccc(Cl)s1,1.55 µM
